Consider 2 molecules from PMC11477289, “Low-Basicity 5-HT6 Receptor Ligands from the Group of Cyclic Arylguanidine Derivatives and Their Antiproliferative Activity Evaluation” (International Journal of Molecular Sciences, 2024).

Values after ≈ are worked out from the molar mass of the structure shown. Bounds are passed on as bounds.

The target of one series is T1, 5-HT1A receptor (Homo sapiens, UniProt P08908).
T1 sequence (P08908 1-422): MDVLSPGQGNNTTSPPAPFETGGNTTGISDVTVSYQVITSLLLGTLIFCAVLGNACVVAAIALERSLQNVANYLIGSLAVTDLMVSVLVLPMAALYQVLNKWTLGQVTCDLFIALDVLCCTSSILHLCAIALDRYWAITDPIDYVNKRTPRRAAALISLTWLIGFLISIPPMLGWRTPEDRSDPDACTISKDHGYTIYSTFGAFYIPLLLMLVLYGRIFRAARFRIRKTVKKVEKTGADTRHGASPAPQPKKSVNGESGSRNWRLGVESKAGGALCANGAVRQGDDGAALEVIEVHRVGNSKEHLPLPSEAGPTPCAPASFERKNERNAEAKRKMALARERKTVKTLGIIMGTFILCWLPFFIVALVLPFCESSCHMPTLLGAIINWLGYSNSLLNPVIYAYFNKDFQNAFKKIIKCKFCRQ
In words: [3H]-8-OHDPAT radioligand binding assay, 5-HT1A.

The target in series [1] is T2, human 5-HT6 (Homo sapiens, UniProt P50406).
T2 construct: expressed in transfected cells
T2 sequence (P50406 whole entry): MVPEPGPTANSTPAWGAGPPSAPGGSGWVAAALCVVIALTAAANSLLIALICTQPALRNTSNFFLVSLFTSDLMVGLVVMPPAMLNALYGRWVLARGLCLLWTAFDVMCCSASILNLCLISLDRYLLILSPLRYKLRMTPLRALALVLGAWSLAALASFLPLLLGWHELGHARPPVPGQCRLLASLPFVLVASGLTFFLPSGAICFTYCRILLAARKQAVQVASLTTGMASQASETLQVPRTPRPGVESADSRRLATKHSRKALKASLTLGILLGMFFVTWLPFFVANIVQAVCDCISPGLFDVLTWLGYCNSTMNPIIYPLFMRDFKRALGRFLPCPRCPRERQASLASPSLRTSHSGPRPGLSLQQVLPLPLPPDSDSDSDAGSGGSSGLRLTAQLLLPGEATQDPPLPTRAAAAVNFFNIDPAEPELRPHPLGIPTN
Nature of the series: [3H]-LSD radioligand binding assay, 5-HT6R. Particulars: HEK293 expressing human 5-HT6R, read-out: 5-HT6 Ki. How it is done:
Next, the ligands’ affinity for the 5-HT6 receptors was evaluated in the [^3H]-LSD radioligand binding assay. Experiments were performed in a stable HEK293 cell line expressing the human 5-HT6R.
The pellets were stored at −80 °C.

In series [2] the target is T2, human 5-HT6. In words: Functional evaluation, cAMP (LANCE Ultra) in HEK293 cells. The class given is cell-based. The settings on record: antagonist mode, cAMP induced by 5-CT 1000 nM. (In general: Time-resolved FRET reads energy transfer from a long-lived donor to a nearby acceptor.)
Experimental: The supernatant was aspirated, and the cell pellet was resuspended in a stimulation buffer (1 × HBSS, 5 mM HEPES, 0.5 mM IBMX, 0.1% BSA).
The functional properties of compounds were evaluated using the LANCE Ultra cAMP detection kit (PerkinElmer). […] To investigate the antagonist activity, dopamine for D2R was added at a concentration of 10 nM, and for cell lines with 5-HT7R, 5-HT1AR, or 5-HT6R, 5-CT concentrations were adjusted, being, respectively, 10, 100, and 1000 nM, according to the receptor subtype.
For the quantification of cAMP levels, cells (5 µL) were incubated with a 5 µL mixture of necessary compounds for 30 min at room temperature in a 384-well white opaque microtiter plate (PerkinElmer). After incubation, the reaction was stopped, and cells were lysed by the addition of a 10 µL working solution (5 µL Eu-cAMP and 5 µL ULight-anti-cAMP). The assay plate was incubated for 1 h at room temperature. The time-resolved fluorescence resonance energy transfer (TR-FRET) signal was detected by an Infinite M1000 Pro (Tecan, Männedorf, Switzerland) using instrument settings from the LANCE Ultra cAMP detection kit manual.
The subject of series [3] is LN-229 glioblastoma cell line. Nature of the series: Antiproliferative activity (MTS), LN-229. The settings on record: Homo sapiens, LN-229, 72 h, read-out: IC50 Values LN-229.
The target of series [4] is human serum albumin (HSA) (Homo sapiens, UniProt P02768). In words: Binding to HSA, Chiralpak HSA column. The settings on record: Chiralpak HSA column. The method, boiled down:
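HSA binding (%HSA) was estimated by HPLC on a Chiralpak HSA column at 30 °C and 0.9 mL/min. The gradient ran 0–20% isopropanol in 50 mM ammonium acetate over 15 min, then held 12 min. UV detection covered 190–300 nm, and values were calibrated against reference compounds, in triplicate.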

The test system of series [5] is 1321N1 astrocytoma cell line. In words: Antiproliferative activity (MTS), 1321N1. The settings on record: Homo sapiens, 1321-N1, 72 h, read-out: IC50 Values 1321N1.
In another series the test system is astrocyte cell line PG-4. Nature of the series: Activity on normal astrocytes (MTS), PG-4. Particulars: Felis catus, 72 h, read-out: IC50 Values PG-4.
The nature of series [6]: Fish embryo toxicity (FET) test, OECD 236. The settings on record: zebrafish (Danio rerio), in vivo, after 96 h of intoxication. How it is done: To determine the toxicity of the compounds [66], the fish embryo toxicity (FET) test was performed on zebrafish (Danio rerio) according to OECD Test 236. The collected embryos were transferred to a Petri dish with an E3 medium, consisting of 5 mM NaCl; 0.33 mM MgCl2; 0.33 mM CaCl2; and 0.17 mM KCl, and placed in 6-well plates, 10 embryos per well. Stock solutions were prepared in DMSO. The range of different concentrations of the solutions was prepared by dissolving stock solutions in the E3 medium each time directly before addition to the wells. The solutions were changed once daily, and the embryos were maintained in the incubator at 28.5 °C. At the end of the exposure period (96 hpf—hours postfertilization), acute toxicity was determined based on a positive outcome in any of the four visual indicators of lethality, including the coagulation of fertilized eggs, lack of somite formation, lack of detachment of the tailbud from the yolk sac, and lack of heartbeat. The value of LD50 was calculated. Heartbeats were recorded to observe cardiotoxic effects. A dose–response curve was generated using Prism 8.0.1 (GraphPad Software).
Figure 3 (A) Toxicity of PR 68 and PR 73 in vivo in Danio reiro embryo toxicity test. […] Cardiotoxicity of (B) PR 68 and (C) PR 73 measured as heart rate (beats per minute) on 5 dpf Danio rerio larvae, E3—fish embryo growth medium. […]

The test system of series [7] is MCF7 breast carcinoma cell line. In words: Antiproliferative activity (MTS), MCF7. Particulars: Homo sapiens, MCF7, 72 h, read-out: IC50 Values MCF7.
The next series concerns the target 5-HT7b receptor (Homo sapiens, UniProt P34969). In words: [3H]-5-CT radioligand binding assay, 5-HT7.

Sequence of human serum albumin (HSA) (P02768 25-609): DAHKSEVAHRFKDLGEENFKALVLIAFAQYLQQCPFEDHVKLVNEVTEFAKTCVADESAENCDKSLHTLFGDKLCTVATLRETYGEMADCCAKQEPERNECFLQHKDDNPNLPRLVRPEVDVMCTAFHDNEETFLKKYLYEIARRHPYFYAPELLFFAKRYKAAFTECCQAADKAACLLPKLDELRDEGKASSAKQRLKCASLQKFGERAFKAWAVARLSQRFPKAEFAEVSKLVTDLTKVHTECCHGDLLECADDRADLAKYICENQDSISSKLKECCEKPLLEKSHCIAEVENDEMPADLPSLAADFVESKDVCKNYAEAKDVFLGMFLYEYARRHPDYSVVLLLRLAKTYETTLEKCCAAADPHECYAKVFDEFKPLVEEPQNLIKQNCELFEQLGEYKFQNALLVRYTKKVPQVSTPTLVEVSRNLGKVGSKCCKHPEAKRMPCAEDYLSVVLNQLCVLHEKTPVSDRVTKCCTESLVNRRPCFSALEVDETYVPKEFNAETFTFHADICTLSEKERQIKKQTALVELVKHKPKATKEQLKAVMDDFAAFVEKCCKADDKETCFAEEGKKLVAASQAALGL
Sequence of 5-HT7b receptor (P34969 1-432 limits assumed): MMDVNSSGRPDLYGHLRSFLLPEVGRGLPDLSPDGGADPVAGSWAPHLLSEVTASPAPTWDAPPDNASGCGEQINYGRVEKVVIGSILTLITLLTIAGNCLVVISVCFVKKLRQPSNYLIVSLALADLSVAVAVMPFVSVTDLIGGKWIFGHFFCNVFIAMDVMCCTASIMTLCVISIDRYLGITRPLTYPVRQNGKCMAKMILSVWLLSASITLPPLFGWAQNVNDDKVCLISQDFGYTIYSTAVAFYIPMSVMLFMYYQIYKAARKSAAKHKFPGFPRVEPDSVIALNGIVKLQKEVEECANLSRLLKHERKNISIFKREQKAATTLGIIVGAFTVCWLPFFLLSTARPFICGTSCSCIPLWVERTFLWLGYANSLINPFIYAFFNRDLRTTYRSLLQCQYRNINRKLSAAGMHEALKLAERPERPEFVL

In general, Ki refers to a dissociation constant, usually derived from enzyme kinetics or from competition with a known ligand. As usually defined, the Kb is the affinity of an antagonist, worked out from how it opposes an agonist. Higher therefore signals lower antagonist affinity. As a reminder, the IC50 is the concentration needed to halve the response being measured. As usually defined, the LC50 is the concentration that kills 50% of the test population. Low values mean greater toxicity, high ones lower toxicity. As to `CC1NC(NS(=O)(=O)c2cccc3ccccc23)=Nc2cccc(Cl)c21` (stereo not shown) [PR 68, N -(5-chloro-4-methyl-3,4-dihydroquinazolin-2-yl)naphthalene-1-sulfonamide], the values for the Ki on 5-HT1A receptor, on human 5-HT6 [1] and at 5-HT7b receptor were 35.1 µM, 0.037 ± 0.008 µM and 19.3 µM, respectively. At human 5-HT6 [2], this molecule had a Kb of 0.079 µM. Further, the IC50 (in series [3]; in series [5]; in the series with astrocyte cell line PG-4; in [7]) was > 25 µM in each case. Moreover, the “%HSA” value in [4] was determined as 97.7%. Further, the logKHSA in [4] is reported as 1.5. The same molecule had an LC50 at 96 h in [6] of 7.82 µg/mL (≈ 20.3 µM).
For the molecule `CC1NC(NS(=O)(=O)c2cccc3ccccc23)=Nc2cccc(F)c21` (stereo not shown) [PR 73, N -(5-fluoro-4-methyl-3,4-dihydroquinazolin-2-yl)naphthalene-1-sulfonamide], the Ki at 5-HT1A receptor was found to be 80 µM; on human 5-HT6 [1], 0.043 ± 0.011 µM; on 5-HT7b receptor it was 35.8 µM. At human 5-HT6 [2], this molecule showed a Kb of 0.134 µM. Also, the IC50 (in series [3]; in series [5]; in the series with astrocyte cell line PG-4; in [7]) was > 25 µM each time. Besides, in [4], the “%HSA” value is recorded as 96.6%. This molecule displayed a logKHSA in series [4] of 1.3. In addition, the LC50 at 96 h in series [6] came to 10.2 µg/mL (≈ 27.5 µM).
